The source of these data is US6964763B1, “Methods and compositions for inhibiting HIV infectivity and blocking chemokine activity” (priority 1997, dated 2005).

Where a SMILES comes first, the peptide text is derived from it. Bounds are passed on as bounds.

Assay [1] addresses T1, CD4 (Homo sapiens, UniProt P01730).
T1 construct: CHO cell-expressed soluble CD4; host or cells: CHO cells
The assay is described as follows: Solid phase binding of 125I-CD4 to immobilized TSP1 and TSP analog. The method, then:
FIG. 12 is a graph showing the binding of ^125I-CD4 to TSP1 and a TSP analog. Increasing concentrations of soluble ^125I-labeled CD4 (0.1μM -1.0 μM) were added to immobilized TSP1, CVSTCG polypeptide (SEQ. ID. No. 1). Samples were incubated and bound ^125I-labeled CD4 measured by solid-binding radio-amino assay, […].
(§1) Radiolabeling was performed with Na[^125I]

The test system of assay [2] is CD4-gp120 complex formation. The assay is described as follows: Competitive inhibition of 125I-CD4 binding to immobilized gp120. Further details: species or system HIV-1 (MN and LAI isolates). The note with it: 10-fold molar excess (0.5 μM) competitor, 50 nM 125I-CD4, MN and LAI gp120. The method, then: FIG. 5 is a graph showing competitive inhibition of ^125I-CD4 binding to gp120. […] Samples were incubated, and bound TSP1 was measured as in FIG. 2. A single data set of triplicate samples (η=3, error as SD) is shown.
as §1
These observations support a role for salivary TSP1 as a direct inhibitor of HIV infectivity.

Assay [3] has as its target T2, gp120 (LAI isolate) (Human immunodeficiency virus type 1 group M subtype B, UniProt P03377).
T2 construct: baculovirus-expressed HIV-1 gp120 derived from LAV and MN isolates; host or cells: baculovirus expression system
The class given is binding, HIV-1.
Description: Increasing concentrations of soluble ^125I-labeled recombinant gp120LAV (nM -1μM) were incubated with immobilized ligand for 2 hours at 37° C., and bound radioactivity measured as in FIGS. 2A and 2B. […] This plot represents a single data set of triplicate samples (72=2, errors as SD).
Briefly, TSP1 (5-10 μg/ml) or fusion proteins and peptides (10-20 μg/ml) were immobilized on detachable 96-well microtiter plate strips (Immulon-4 Remov-a-well, Dynatech Laboratories, Inc.), by overnight incubation at 4° C. in carbonate buffer (100 mM Na2CO3/1 mM MgCl2/0.02% NaN3, pH 9.8). Washed wells were blocked with 0.5% bovine serum albumin (“BSA”), then incubated in triplicate with soluble radiolabeled ligand for 2.5 hours at 37° C. After extensive washing in 50 mM Tris pH 7.5, 150 mM NaCl, 0.5% Tween-20 (TBS-Tween), bound radioactivity was quantified by gamma counter. […] Specific activity of Na[^125I] was determined for each experiment, ranging from 0.06-1.0 μCi/μg. Specific binding was determined as quenchable in the presence of excess unlabeled ligand, above background binding to BSA-coated wells.
The gp120 envelope protein was tested to determine whether it shared this same specificity.

Assay [4] concerns HIV-1 isolate IIIB. The assay is described as follows: HIV-1 infectivity assay, virus pre-incubated with TSP1 or saliva, p24 ELISA day 7. The class given is cell-based. The procedure:
HIV-1 isolate IIIB was pre-incubated in the absence of TSP1, or with various concentrations of purified TSP1 for 1 hour at 37° C. Pre-incubated virus-TSP1 mixtures were added to target cells either directly (−), or first passed through 0.2 μm filters (+). Phorbol myrisate acetate (“PMA”) activated primary peripheral blood mononuclear cells (“PBMC”), SK23 (T-cell line) or U937 (promonocytic line) were inoculated with the multiplicities of infection (“moi”) indicated. After an additional 1 hour at 37° C., infected cells were washed, cultured for 7 days, and HIV-1 p24 antigen measured by ELISA. Inhibition is expressed for a single data set as percent of maximum p24 detected in the absence of TSP1.
PMA-stimulated primary PBMC were infected with 0.02 moi HIV/IIIB that had been pre-incubated with TSP1 alone, or with LIMPII fusion protein LFP75-155 alone or in the presence of TSP1, and filtered prior to incubation as in FIG. 7. TSP-mediated inhibition is expressed as percent decrease in p24 relative to maximum p24 detected in the absence of TSP 1. Data shown represent the average of two independent experiments (error as SD).
CD4+T lymphoblastoid (SK23, Jurkat) and promonocytic (U937) cell lines, or peripheral blood mononuclear cells (“PBMC”) obtained from HIV seronegative donors and activated with phytohemagglutinin (“PHA”, 2 μg/ml for 72 hours), were cultured in RPMI 1640, 5% fetal bovine serum (“FBS”, frozen/thawed and complement-inactivated 30 minutes at 56° C.), 100 U/ml penicillin and 100 μg/ml streptomycin (GIBCO/BRL, Grand Island, N.Y.). PBMC medium also contained 32 U/ml interleukin-2 (Sigma Chemical Co., St. Louis, Mo.). FBS samples were pre-screened to assure that levels of TSP were<10 μg/ml. Acute HIV infection was performed using HIV-1 isolate IIIB stock virus as previously described (Laurence et al., “Human Immunodeficiency Virus Infection of Helper T-Cell Clones: Early Proliferative Defects Despite Intact Antigen-Specific Recognition and Interleukin 4 Secretion,” J. Clin. Invest., 83:1843-1848 (1989); Laurence et al., “Human Immunodeficiency Virus Infection of Monocytes: Relationship to Fc-Gamma Receptors and Antibody-Dependent Viral Enhancement,” Immunology, 70:338-343 (I 990), which are hereby incorporated by reference). Briefly, 2.5×10^5 target cells were exposed to stock virus at a moi of either 0.02 or 0.15 for 2 hours at 37° C., washed once with PBS, and re-plated in tissue culture-treated microwells with 0.3 ml fresh culture medium. At 3-4 days post-inoculation, one half of culture supernatant from each well was replaced with fresh medium. HIV activity was determined after 7 days using an ELISA antigen capture assay for HIV-1 p24 (gag) core protein (Dupont Medical Products, Boston, Mass.) of Triton X-100 solubilized culture supernatants.
• 100 μl of HIV-1/IIIB inocula were mixed with 100 μl of various concentrations of whole saliva, salivary fluid fractions, or purified platelet TSP1 diluted in serum-free cell culture medium, and pre-incubated for 2 hours at 37° C. Then, 10-fold serial dilutions were added directly to target cell cultures for assay of infectivity. In some experiments, pre-incubated virus-saliva/TSP mixtures were filtered through 0.2 μm nitrocellulose syringe filters (Gelman Sciences, Ann Arbor, Mich.) prior to inoculation of target cells. Salivary TSP1 Depletion Experiments
(In general: ELISA stands for enzyme-linked immunosorbent assay.)

For assay [5], the target named is T3, RANTES (Homo sapiens, UniProt P13501).
T3 sequence (P13501 24-91): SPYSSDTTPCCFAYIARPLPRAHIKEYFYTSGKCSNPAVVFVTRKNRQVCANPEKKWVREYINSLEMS
The assay is described as follows: Solid phase binding of 125I-RANTES to immobilized TSP. The procedure:
FIG. 9 is a graph showing the binding of ^125I-RANTES to TSP1. Increasing concentrations of soluble ^125I-labeled RANTES (0.01 μM -10.0 μM) were added to immobilized TSP1. Samples were incubated and bound ^125I-labeled RANTES measured by solid-binding radio-amino assay.
FIG. 10 is a graph showing the Hanes analysis of “^125-RANTES binding to immobilized TSP1. The Hanes analysis provides a measure of assessing the possibility of binding one or more factors to a given molecule.
as §1
In solid phase assays, ^125I-RANTES binded to immobilized TSP. […] Estimated stoichiometry at equilibrium was low (˜0.5 RANTES molecule for every 10 TSP monomer), although the steep slope of the second phase indicated a cooperative interaction (Hanes plot, FIG. 10). One interpretation of the data is that RANTES homodimerization is favored over binding to TSP. At a concentration that shifts equilibrium toward formation of the heterologous complex, positive cooperativity likely reflects a higher apparent affinity of RANTES monomers for binding to TSP, with an increase in monomers being a function of the odd number of sites presented by TSP homotrimers.

Assay [6] has as its system monocytotropic strains of HIV-1, p13 and HA593. The assay is described as follows: HIV-1 infectivity assay with monocytotropic patient isolates. The class given is cell-based. As to conditions: 100 μg/ml TSP1, viral moi 0.8.
Assay [7] concerns CD4 surface expression. The assay is described as follows: Cell surface expression of CD4 by flow cytometry. The note with it: 100 μg/ml TSP1, 3 days; Jurkat, SK23, PHA-activated PBMC. The class given is cell-based, human. The procedure:
CD4 surface expression on HIV-1 infected or uninfected U937 cells was evaluated by indirect immunofluorescence flow cytometry using anti-CD4 mAb Leu3, as detailed elsewhere (Laurence et al., “Human Immunodeficiency Virus Infection of Helper T-Cell Clones: Early Proliferative Defects Despite Intact Antigen-Specific Recognition and Interleukin 4 Secretion,” J. Clin. Invest., 83:1843-1848 (1989), which is hereby incorporated by reference).
Another mechanism to explain TSP-mediated blockade to HIV infection would be a direct effect on target cells, whereby alterations in cell function would decreased the capacity to support productive infection. To address whether exogenous purified TSP1 induced down-modulation of the high affinity HIV receptor, CD4+ Jurkat and SK23 T-cell lines, as well as PHA-activated PBMC, were monitored for differences in CD4 surface expression after culture for 3 days in the absence or presence of 100 μg/ml TSP1. By flow cytometric analysis of cells stained with fluorescein-conjugated anti-CD4 IgG, no change in relative fluorescence intensity or percent CD4+cell was detected.
On the technique in general: In flow cytometry, cells or beads pass a laser one at a time.

In assay [8] the target is recombinant HIV-1 gp160 (gp120 non-covalently linked to gp41) (Human immunodeficiency virus type 1 group M subtype B, UniProt P03375).
Description: Increasing concentrations of soluble ^125I-labeled TSP1 (1 nM-μM) were added to immobilized recombinant HIV-1 gp160 for 3 hours at 22° C., and bound TSP1 measured after extensive washing. Non-linear curve fit was generated with Excell™ version 5.0. Apparent affinity was estimated from Scatchard analysis. (n=2; error calculated as standard deviation, SD).
A fixed concentration of ^125I-labeled TSP 1(50 nM) was added to immobilized rgp 160 in the absence or presence of 10-fold molar excess (0.5 μM) unlabeled TSP1, fusion protein LFP75-155 containing the LIMPII TSP binding domain (aa 75-155), or downstream fusion protein LFP 156-243. Samples were incubated, and bound TSP 1 was measured as in FIG. 2A. Plots represent single data sets of triplicate samples. (n=3, error as SD).
Briefly, TSP1 (5-10 μg/ml) or fusion proteins and peptides (10-20 μg/ml) were immobilized on detachable 96-well microtiter plate strips (Immulon-4 Remov-a-well, Dynatech Laboratories, Inc.), by overnight incubation at 4° C. in carbonate buffer (100 mM Na2CO3/1 mM MgCl2/0.02% NaN3, pH 9.8). Washed wells were blocked with 0.5% bovine serum albumin (“BSA”), then incubated in triplicate with soluble radiolabeled ligand for 2.5 hours at 37° C. After extensive washing in 50 mM Tris pH 7.5, 150 mM NaCl, 0.5% Tween-20 (TBS-Tween), bound radioactivity was quantified by gamma counter. Radiolabeling was performed with Na[^125I] […] Specific activity of Na[^125I] was determined for each experiment, ranging from 0.06-1.0 μCi/μg. Specific binding was determined as quenchable in the presence of excess unlabeled ligand, above background binding to BSA-coated wells.

With `CC(C)[C@H](NC(=O)[C@H](CO)NC(=O)[C@@H](N)CS)C(=O)N[C@H](C(=O)N[C@@H](CS)C(=O)NCC(=O)O)[C@@H](C)O` [CSVTCG, cys-ser-val-thr-cys-gly] (H-CSVTCG-OH; N-terminus and C-terminus assumed), in assay [1], the “binding of 125I-CD4 to immobilized ligand (in words)” value is on record as “binded directly”. The “inhibition of 125I-CD4 binding to immobilized gp120” value (“inhibition of 125I-CD4 binding” below) in assay [2] amounted to 53±9%.

In the case of GRGDS (GRGDA) [reference compound], the “inhibition of 125I-CD4 binding” value in assay [2] is 4±4%. In addition, in assay [3], the “binding of 125I-gp120 to immobilized peptide (in words)” value is listed as “inefficient binding”.

For “VGSCCT [scrambled control peptide, reference compound]”, the “inhibition of 125I-CD4 binding” value in assay [2] is on record as “enhanced binding”. Further, the “binding of 125I-gp120 to immobilized peptide (in words)” value in assay [3] is given as “inefficient binding”.

Take fibrinogen [reference compound]: the “effect on HIV-1 infection of PBMC (in words)” value in assay [4] (same system as TSP1, pre-filtered) is on record as “no effect”.

Regarding thrombospondin-1 [TSP1], the “estimated stoichiometry at equilibrium” value in assay [5] is on record as ~0.5 RANTES molecule for every 10 TSP monomer. Besides, the Kd was roughly 330 nM in assay [5] (saturatable, biphasic higher order kinetics, read-out: half maximal binding of 125I-RANTES to immobilized TSP) and roughly 250 nM in assay [8] (read-out: apparent affinity of TSP1 binding to immobilized recombinant gp160, soluble 125I-TSP1, Scatchard analysis). The “reduction of HIV-1 infection of PHA-activated donor PBMC (p24)” value in assay [4] (2-10 μg/ml TSP1, pre-filtered) is greater than 83%. For the same compound, the “reduction of HIV-1 infectivity after brief exposure” value in assay [4] (5 minutes exposure of TSP-virion mixture, 1 μg/ml TSP1) is recorded as greater than 50%. Besides, the “inhibition of HIV-1 IIIB infection, SK23” value in assay [4] (SK23 CD4+ T-lymphoblastoid cell line) is recorded as no less than 90.7%. Also, the “inhibition of HIV-1 IIIB infection, U937” value in assay [4] (U937 monocytoid cell line) was no less than 83.0%. Moreover, in assay [4] (no filtration, only with high concentration of TSP1 and low moi inoculum), the “inhibition of HIV-1 on direct addition of TSP1” value is 50-75%. In addition, the “binding of 125I-CD4 to immobilized ligand (in words)” value in assay [1] was “concentration dependent saturatable manner”. Also, the “inhibition of HIV infectivity, strains p13 and HA593” value in assay [6] was no less than 98±1%. The “inhibition of 125I-CD4 binding” value in assay [2] is recorded as “complete inhibition”. For the same compound, the “change in relative fluorescence intensity or percent CD4+ cells” value in assay [7] is on record as “no change”. The “inhibition of 125I-TSP1 binding to gp160” value in assay [8] (10-fold molar excess (0.5 μM) unlabeled competitor, 50 nM 125I-TSP1) is reported as 94±6%.
